Results: patent US20220388964A1 (HiberCell, Inc., priority 2019, published 2022)
pIC50: −log10 of the molar value.

The compounds below were run against GCN2 (Homo sapiens, UniProt Q9P2K8) (assay: TR-FRET biochemical assay for inhibition of GCN2 (Example 106, for Example 1-4BB)). Conditions: Table 8.
Sequence of GCN2 (Q9P2K8 whole entry): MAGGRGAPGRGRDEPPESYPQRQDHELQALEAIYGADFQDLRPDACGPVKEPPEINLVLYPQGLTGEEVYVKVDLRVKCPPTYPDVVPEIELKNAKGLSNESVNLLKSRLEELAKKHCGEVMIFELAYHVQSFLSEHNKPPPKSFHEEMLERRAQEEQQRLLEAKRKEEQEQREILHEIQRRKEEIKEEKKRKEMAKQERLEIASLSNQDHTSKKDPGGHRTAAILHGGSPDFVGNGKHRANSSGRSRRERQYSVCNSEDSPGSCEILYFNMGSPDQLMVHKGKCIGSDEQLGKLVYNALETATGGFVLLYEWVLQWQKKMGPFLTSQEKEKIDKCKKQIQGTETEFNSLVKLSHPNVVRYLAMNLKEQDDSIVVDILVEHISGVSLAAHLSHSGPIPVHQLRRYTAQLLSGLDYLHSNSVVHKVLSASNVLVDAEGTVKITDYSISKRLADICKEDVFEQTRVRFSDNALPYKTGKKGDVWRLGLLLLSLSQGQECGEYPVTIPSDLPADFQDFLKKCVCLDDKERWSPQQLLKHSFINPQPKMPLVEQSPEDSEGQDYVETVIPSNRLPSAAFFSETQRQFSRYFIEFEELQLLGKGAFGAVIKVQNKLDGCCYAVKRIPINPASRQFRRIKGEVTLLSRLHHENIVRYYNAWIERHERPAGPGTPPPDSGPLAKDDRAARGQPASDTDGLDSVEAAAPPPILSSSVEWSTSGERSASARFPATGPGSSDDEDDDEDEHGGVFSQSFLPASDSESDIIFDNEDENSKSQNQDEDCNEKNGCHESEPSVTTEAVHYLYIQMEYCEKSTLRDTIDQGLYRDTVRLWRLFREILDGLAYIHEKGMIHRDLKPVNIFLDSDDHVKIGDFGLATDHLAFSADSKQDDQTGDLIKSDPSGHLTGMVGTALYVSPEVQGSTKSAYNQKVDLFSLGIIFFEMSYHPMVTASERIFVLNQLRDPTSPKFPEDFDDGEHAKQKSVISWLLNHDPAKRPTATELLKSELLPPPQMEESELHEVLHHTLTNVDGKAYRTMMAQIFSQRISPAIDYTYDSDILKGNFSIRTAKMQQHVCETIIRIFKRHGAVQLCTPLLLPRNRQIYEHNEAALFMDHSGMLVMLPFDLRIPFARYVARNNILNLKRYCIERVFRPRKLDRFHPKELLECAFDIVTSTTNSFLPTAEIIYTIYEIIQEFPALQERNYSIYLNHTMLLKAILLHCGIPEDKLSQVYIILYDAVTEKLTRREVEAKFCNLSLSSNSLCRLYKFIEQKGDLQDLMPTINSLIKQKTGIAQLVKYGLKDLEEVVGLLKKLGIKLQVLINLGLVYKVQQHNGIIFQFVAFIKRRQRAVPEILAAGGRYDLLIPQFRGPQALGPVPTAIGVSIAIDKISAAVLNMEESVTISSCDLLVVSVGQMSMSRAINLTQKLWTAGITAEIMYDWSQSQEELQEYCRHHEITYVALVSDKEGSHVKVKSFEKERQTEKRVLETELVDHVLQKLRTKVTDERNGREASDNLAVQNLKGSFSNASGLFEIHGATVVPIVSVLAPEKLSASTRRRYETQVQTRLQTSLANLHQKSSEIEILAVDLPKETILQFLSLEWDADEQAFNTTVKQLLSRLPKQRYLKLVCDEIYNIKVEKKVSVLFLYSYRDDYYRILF

| pIC50 | Structure (SMILES) |
| --- | --- |
| > 6.30 | N#Cc1ccccc1S(=O)(=O)Nc1ccc(F)c(-c2ccc3c(-c4ncc[nH]4)n[nH]c3c2F)c1F [Example 2BK, 2-cyano-N-(2,4-difluoro-3-(7-fluoro-3-(1H-imidazol-2-yl)-1H-indazol-6-yl)phenyl)-benzenesulfonamide] |
| > 6.30 | O=S(=O)(Nc1ccc(F)c(-c2ccc3c(-c4ncc[nH]4)n[nH]c3c2F)c1F)c1cccnc1Cl [Example 2BM, 2-chloro-N-(2,4-difluoro-3-(7-fluoro-3-(1H-imidazol-2-yl)-1H-indazol-6-yl)phenyl)-pyridine-3-sulfonamide] |
| 5.60 to 6.30 | COc1cccc(S(=O)(=O)Nc2ccc(F)c(-c3ccc4c(-c5ncc[nH]5)n[nH]c4c3F)c2F)n1 [Example 2AM, N-(2,4-difluoro-3-(7-fluoro-3-(1H-imidazol-2-yl)-1H-indazol-6-yl)phenyl)-6-methoxypyridine-2-sulfonamide] |
| 5.60 to 6.30 | COc1ncc(Cl)cc1S(=O)(=O)Nc1ccc(F)c(-c2ccc3c(N)n[nH]c3c2F)c1F [Example 7, N-(3-(3-Amino-7-fluoro-1H-indazol-6-yl)-2,4-difluorophenyl)-5-chloro-2-methoxypyridine-3-sulfonamide] |
| > 6.30 | O=S(=O)(Nc1ccc(F)c(-c2ccc3c(-c4ncc[nH]4)n[nH]c3c2F)c1F)c1ccc(F)cc1Cl [Example 2BS] |
| 5.00 to 5.60 | O=c1[nH]cccc1S(=O)(=O)Nc1ccc(F)c(-c2ccc3c(-c4ncc[nH]4)n[nH]c3c2F)c1F [Example 2AC, N-(2,4-difluoro-3-(7-fluoro-3-(1H-imidazol-2-yl)-1H-indazol-6-yl)phenyl)-2-oxo-1,2-dihydro-pyridine-3-sulfonamide] |
| > 6.30 | Cn1cc(Cl)cc(S(=O)(=O)Nc2ccc(F)c(-c3ccc4c(-c5ncc[nH]5)n[nH]c4c3F)c2F)c1=O [Example 2AN, 5-chloro-N-(2,4-difluoro-3-(7-fluoro-3-(1H-imidazol-2-yl)-1H-indazol-6-yl)phenyl)-1-methyl-2-oxo-1,2-dihydro-pyridine-3-sulfonamide] |
| > 6.30 | COc1ncc(Cl)cc1S(=O)(=O)Nc1cccc(-c2ccc3c(-c4ncc[nH]4)n[nH]c3c2F)c1C#N [Example 2AD, 5-chloro-N-(2-cyano-3-(7-fluoro-3-(1H-imidazol-2-yl)-1H-indazol-6-yl)phenyl)-2-methoxypyridine-3-sulfonamide] |
| > 6.30 | Cc1ccc(Cl)cc1S(=O)(=O)Nc1ccc(F)c(-c2ccc3c(-c4ncc[nH]4)n[nH]c3c2)c1F [Example 2AW, N-(3-(3-(1H-imidazol-2-yl)-1H-indazol-6-yl)-2,4-difluorophenyl)-5-chloro-2-methylbenzenesulfonamide] |
| 5.00 to 5.60 | O=c1cccc(S(=O)(=O)Nc2ccc(F)c(-c3ccc4c(-c5ncc[nH]5)n[nH]c4c3F)c2F)[nH]1 [Example 2AL, N-(2,4-difluoro-3-(7-fluoro-3-(1H-imidazol-2-yl)-1H-indazol-6-yl)phenyl)-6-oxo-1,6-dihydropyridine-2-sulfonamide] |
| > 6.30 | COc1ncccc1S(=O)(=O)Nc1ncc(F)c(-c2ccc3c(-c4ncc[nH]4)n[nH]c3c2F)c1F [Example 2CL, N-(3,5-difluoro-4-(7-fluoro-3-(1H-imidazol-2-yl)-1H-indazol-6-yl)pyridin-2-yl)-2-methoxypyridine-3-sulfonamide] |
| > 6.30 | O=S(=O)(Nc1ccc(F)c(-c2ccc3c(-c4ncc[nH]4)n[nH]c3c2F)c1F)c1cccc(Cl)c1Cl [Example 2BL, 2,3-dichloro-N-(2,4-difluoro-3-(7-fluoro-3-(1H-imidazol-2-yl)-1H-indazol-6-yl)phenyl)-benzenesulfonamide] |
| > 6.30 | COc1ncc(Cl)cc1S(=O)(=O)Nc1ccnc(-c2ccc3c(-c4ncc[nH]4)n[nH]c3c2)c1F [Example 2CB, N-(2-(3-(1H-imidazol-2-yl)-1H-indazol-6-yl)-3-fluoro-pyridin-4-yl)-5-chloro-2-methoxypyridinc-3-sulfonamide] |
| 5.60 to 6.30 | COc1ccc(S(=O)(=O)Nc2ccc(F)c(-c3ccc4c(-c5ncc[nH]5)n[nH]c4c3F)c2F)cc1 [Example 2B, N-(2,4-difluoro-3-(7-fluoro-3-(1H-imidazol-2-yl)-1H-indazol-6-yl)phenyl)-4-methoxybenzene-sulfonamide] |

Same assay, conditions: Table 9

| pIC50 | Structure (SMILES) |
| --- | --- |
| 5.60 to 6.30 | Cc1ccc(F)cc1S(=O)(=O)Nc1ccc(F)c(-c2cc3[nH]ncc3cn2)c1F [Example 4BB] |
| > 6.30 | NC(=O)c1n[nH]c2c(F)c(-c3c(F)ccc(NS(=O)(=O)c4cc(F)cc5c4CCC5=O)c3F)ccc12 [Example 4S] |
| 5.60 to 6.30 | Cc1ncc(F)cc1S(=O)(=O)Nc1cccc(-c2ccc3c(-c4ncc[nH]4)n[nH]c3c2C)c1F [Example 3Y, N-(3-(3-(1H-imidazol-2-yl)-7-methyl-1H-indazol-6-yl)-2-fluorophenyl)-5-fluoro-2-methylpyridine-3-sulfonamide] |
| > 6.30 | COc1ncc(F)cc1S(=O)(=O)Nc1ccc(F)c(-c2ccc3c(C(=O)NCCCN(C)C)n[nH]c3c2F)c1F [Example 3U, 6-(2,6-difluoro-3-((5-fluoro-2-methoxypyridine)-3-sulfonamido)phenyl)-N-(3-(dimethylamino)propyl)-7-fluoro-1H-indazole-3-carboxamide] |
| > 6.30 | O=C(Nc1cnn(CCO)c1)c1n[nH]c2c(F)c(-c3c(F)ccc(NS(=O)(=O)c4cc(F)cc(CO)c4Cl)c3F)ccc12 [Example 4AC] |
| > 6.30 | COc1ncc(Cl)cc1S(=O)(=O)Nc1ccc(F)c(-c2ccc3c(C(=O)N[C@H]4CCN(C)C4)n[nH]c3c2F)c1F [Example 3AF, 6-(3-((5-chloro-2-methoxy-pyridine)-3-sulfonamido)-2,6-difluorophenyl)-7-fluoro-N-((S)-1-methylpyrrolidin-3-yl)-1H-indazole-3-carboxamide] |
| > 6.30 | COc1ncc(Cl)cc1S(=O)(=O)Nc1ccc(F)c(-c2ccc3c(C(=O)Nc4nn[nH]n4)n[nH]c3c2F)c1F [Example 3CU, 6-(3-((5-chloro-2-methoxy-pyridine)-3-sulfonamido)-2,6-difluorophenyl)-7-fluoro-N-(2H-tetrazol-5-yl)-1H-indazole-3-carboxamide] |
| > 6.30 | COc1ncc(F)cc1S(=O)(=O)Nc1ccc(F)c(-c2ccc3c(C(=O)Nc4cn[nH]c4)n[nH]c3c2F)c1F [Example 3BO, 6-(2,6-difluoro-3-((5-fluoro-2-methoxypyridine)-3-sulfonamido)phenyl)-7-fluoro-N-(1H-pyrazol-4-yl)-1H-indazole-3-carboxamide] |
| 5.60 to 6.30 | COc1ncc(C#N)cc1S(=O)(=O)Nc1ccc(F)c(-c2ccc3c(C(=O)NCCCN(C)C)n[nH]c3c2F)c1F [Example 3BU, 6-(3-((5-cyano-2-methoxy-pyridine)-3-sulfonamido)-2,6-difluorophenyl)-N-(3-(dimethylamino)propyl)-7-fluoro-1H-indazole-3-carboxamide] |

The next lines start with the compound.

| Structure (SMILES) | pIC50 |
| --- | --- |
| COc1ncc(F)cc1S(=O)(=O)Nc1ccc(F)c(-c2ccc3c(C(=O)NCCNC(C)=O)n[nH]c3c2F)c1F [Example 23, N-(2-Acetamidoethyl)-6-(2,6-difluoro-3-((5-fluoro-2-methoxypyridine)-3-sulfonamido)phenyl)-7-fluoro-1H-indazole-3-carboxamide] | 5.60 to 6.30 |
| Cc1ccc(F)cc1S(=O)(=O)Nc1ncc(F)c(-c2ccc3c(-c4ncc[nH]4)n[nH]c3c2F)c1F [Example 30, N-(3,5-Difluoro-4-(7-fluoro-3-(1H-imidazol-2-yl)-1H-indazol-6-yl)pyridin-2-yl)-5-fluoro-2-methylbenzenesulfonamide] | > 6.30 |
